Measurements published in patent publication US20240335465A1 (University of Virginia Patent Foundation, priority 2021, published 2024).

Experiments:
[1] = tested on: cell cycle progression; assay: Cell cycle analysis by flow cytometry (BrdU, propidium iodide); type: cell-based, human
Method: Cells were washed with cold PBS and resuspended in 0.5 ml PBS to achieve a single cell suspension. Cells were fixed in a tube containing 4.5 ml 70% ethanol kept at 4° C. overnight. Cells were collected by centrifugation at 500 g for 5 minutes and washed twice with PBS. Washed cells were then stained with 1 ml of freshly prepared staining solution containing propidium iodide (10 μg/ml), DNase-free RNaseA (100 μg/ml), and 0.1% (v/v) Triton X-100 before being subjected to flow cytometry measurement. To determine percentage of cell population in various cell cycle stage, ˜10,000-30,000 cells were acquired on an Attune NxT cytometer and analyzed using FCS Express software. Cell cycle analysis was performed on propidium iodide stained cells and single cell events were determined by gating on the area against the width of the propidium iodide pulse signal. DNA cell cycle modeling and fit was performed using the Multicycle AV plugin (Phoenix Flow Systems).
Cells were fixed and stained to detect BrdU incorporation by flow cytometry following the manufacturer's protocol (FITC BrdU Flow Kit, BD Biosciences, Cat #559619).

[2] = tested on: HEK293-TrLR cells; assay: HDR and NHEJ assay using Traffic Light Reporter; type: cell-based, human
Method: TrLR-integrated HEK293 cells were selected through exposure to 5 μg/ml puromycin for 2 weeks. […] 8 hours following this procedure, cells were transfected with pCVL SFFV d14GFP Donor (Addgene Cat #31475), pCBASceI (Addgene Cat #26477)), or Donor+SceI using Lipofectamine 3000. 72 hours post-transfection, cells were trypsinized, collected, and analyzed with an Attune NxT flow cytometer (Thermofisher). To quantify the DNA repair events, ˜10,000-30,000 cells were acquired on an Attune NxT cytometer and analyzed using FCS Express software. Single cell events were determined by gating on the area against the width of the forward scatter pulse signal. Debris removal was performed by excluding events with very low forward and side scatter. For determining % of GFP and mCherry positive cells we established positive and negative populations using mock transfections as negative controls and GFP or mCherry transfected samples as Fluorescence Minus One controls.

[3] = tested on: DDR signaling; assay: DDR signaling immunoblot in HEK293 cells; type: cell-based, human; details: HEK293, 2 μM KU-55933 1 hr, cGAMP 16 hours
[4] = target: ATM (Homo sapiens, UniProt Q13315); details: recombinant ATM and TBK1; 25 μM ATM inhibitor, 10 μM TBK1 inhibitor
Sequence of ATM (Q13315 whole entry): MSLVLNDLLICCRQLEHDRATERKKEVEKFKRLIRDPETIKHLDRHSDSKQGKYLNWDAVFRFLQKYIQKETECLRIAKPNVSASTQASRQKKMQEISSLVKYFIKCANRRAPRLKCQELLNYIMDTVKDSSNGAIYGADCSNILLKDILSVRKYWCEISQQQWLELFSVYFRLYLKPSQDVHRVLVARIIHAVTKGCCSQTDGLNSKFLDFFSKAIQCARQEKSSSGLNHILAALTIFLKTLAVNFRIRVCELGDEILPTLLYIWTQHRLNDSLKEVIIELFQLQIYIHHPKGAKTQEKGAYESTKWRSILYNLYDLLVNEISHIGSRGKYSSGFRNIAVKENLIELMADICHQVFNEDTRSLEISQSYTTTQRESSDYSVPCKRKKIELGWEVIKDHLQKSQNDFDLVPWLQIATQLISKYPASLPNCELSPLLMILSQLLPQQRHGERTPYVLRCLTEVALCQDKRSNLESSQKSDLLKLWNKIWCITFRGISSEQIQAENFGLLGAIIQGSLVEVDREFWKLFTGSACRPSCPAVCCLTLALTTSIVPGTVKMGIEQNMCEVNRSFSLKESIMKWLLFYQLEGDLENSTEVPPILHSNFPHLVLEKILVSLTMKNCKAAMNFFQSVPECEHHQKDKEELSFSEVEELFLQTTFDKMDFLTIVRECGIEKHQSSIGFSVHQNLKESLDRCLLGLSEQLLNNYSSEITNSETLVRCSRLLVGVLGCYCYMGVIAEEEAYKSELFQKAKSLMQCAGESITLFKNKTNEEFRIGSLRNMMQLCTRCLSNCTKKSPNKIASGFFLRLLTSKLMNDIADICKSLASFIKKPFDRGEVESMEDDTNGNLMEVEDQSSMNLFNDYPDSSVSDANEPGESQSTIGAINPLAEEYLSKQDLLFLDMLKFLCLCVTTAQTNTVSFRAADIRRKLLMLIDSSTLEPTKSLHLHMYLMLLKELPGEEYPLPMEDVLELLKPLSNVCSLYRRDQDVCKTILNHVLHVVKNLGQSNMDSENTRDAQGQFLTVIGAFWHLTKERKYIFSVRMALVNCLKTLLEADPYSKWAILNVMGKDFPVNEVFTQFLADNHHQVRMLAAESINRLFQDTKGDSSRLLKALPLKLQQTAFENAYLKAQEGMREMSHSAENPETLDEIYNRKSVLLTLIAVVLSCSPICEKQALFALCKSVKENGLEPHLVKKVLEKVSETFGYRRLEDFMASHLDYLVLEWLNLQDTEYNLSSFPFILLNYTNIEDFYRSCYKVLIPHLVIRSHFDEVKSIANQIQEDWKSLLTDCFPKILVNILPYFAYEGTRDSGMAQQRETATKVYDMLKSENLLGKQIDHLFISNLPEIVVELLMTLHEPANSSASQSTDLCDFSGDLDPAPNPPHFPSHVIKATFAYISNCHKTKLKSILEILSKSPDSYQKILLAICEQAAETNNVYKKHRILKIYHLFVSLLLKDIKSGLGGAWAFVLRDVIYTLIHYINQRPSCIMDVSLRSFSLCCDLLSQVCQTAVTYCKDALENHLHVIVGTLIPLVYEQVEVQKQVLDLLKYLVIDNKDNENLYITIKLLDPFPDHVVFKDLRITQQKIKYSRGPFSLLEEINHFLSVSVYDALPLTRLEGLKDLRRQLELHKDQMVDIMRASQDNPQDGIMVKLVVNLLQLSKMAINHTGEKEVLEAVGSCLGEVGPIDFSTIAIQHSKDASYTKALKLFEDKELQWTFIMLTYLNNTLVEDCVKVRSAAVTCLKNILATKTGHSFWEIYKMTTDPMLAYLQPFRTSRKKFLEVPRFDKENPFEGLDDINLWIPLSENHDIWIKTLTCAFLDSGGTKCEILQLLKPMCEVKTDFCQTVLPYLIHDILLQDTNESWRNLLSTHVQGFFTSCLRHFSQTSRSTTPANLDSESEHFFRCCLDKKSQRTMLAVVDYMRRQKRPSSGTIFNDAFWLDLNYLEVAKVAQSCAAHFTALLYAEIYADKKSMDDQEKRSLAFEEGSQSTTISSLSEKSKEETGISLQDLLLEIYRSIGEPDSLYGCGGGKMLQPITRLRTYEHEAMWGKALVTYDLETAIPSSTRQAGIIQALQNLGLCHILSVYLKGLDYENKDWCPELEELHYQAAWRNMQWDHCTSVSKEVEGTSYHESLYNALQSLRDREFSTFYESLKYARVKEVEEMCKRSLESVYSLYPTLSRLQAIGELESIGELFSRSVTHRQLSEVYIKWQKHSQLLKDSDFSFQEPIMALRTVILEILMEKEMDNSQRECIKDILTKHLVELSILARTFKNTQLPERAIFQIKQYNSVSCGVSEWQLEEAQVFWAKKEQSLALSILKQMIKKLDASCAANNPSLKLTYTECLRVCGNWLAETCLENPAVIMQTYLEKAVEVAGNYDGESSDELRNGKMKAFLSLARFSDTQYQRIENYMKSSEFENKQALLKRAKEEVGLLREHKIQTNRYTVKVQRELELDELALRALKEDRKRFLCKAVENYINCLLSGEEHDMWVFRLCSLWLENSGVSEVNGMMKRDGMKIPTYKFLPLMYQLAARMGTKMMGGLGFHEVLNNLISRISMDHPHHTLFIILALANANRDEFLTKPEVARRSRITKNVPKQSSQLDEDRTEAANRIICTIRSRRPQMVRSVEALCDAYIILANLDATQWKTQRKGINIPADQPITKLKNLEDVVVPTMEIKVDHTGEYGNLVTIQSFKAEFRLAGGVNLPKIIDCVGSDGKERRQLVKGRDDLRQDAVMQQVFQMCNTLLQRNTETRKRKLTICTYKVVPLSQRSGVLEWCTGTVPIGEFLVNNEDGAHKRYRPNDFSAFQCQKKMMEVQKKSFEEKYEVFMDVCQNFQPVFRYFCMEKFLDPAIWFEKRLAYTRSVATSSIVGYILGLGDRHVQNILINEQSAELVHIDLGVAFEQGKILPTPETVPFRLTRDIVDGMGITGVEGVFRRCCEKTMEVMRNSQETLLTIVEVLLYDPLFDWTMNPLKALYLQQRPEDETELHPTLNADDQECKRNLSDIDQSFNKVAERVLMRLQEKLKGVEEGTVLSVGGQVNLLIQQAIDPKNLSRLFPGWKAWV
Method: 2× laemmli buffer was added and the mixture which was then incubated at 98° C. for 10 mins. The protein mixtures were separated on a 7.5% SDS/PAGE gel and immunoblotted for anti phospho-ATM (Ser1981) antibody to assess phosphorylation status if ATM. To test the effect of inhibitors on recombinant TBK1 mediated ATM phosphorylation, 25 μM ATM inhibitor, and 10 μM TBK1 inhibitor and was pre-incubated with recombinant ATM or recombinant TBK1 (TBK1 inhibitor) before setting up the kinase assay as described above.

[5] = tested on: DDR signaling; assay: DDR signaling immunoblotting in THP1 cells; details: for DDR induction in cells lacking STING or TBK1: STING−/− or shTBK1 cells
[6] = tested on: DDR signaling; assay: DDR signaling immunoblotting in primary mouse embryonic fibroblasts; details: for DDR signaling (γH2AX): cGAS−/− and cGAS GS198AA primary MEFs vs WT
[7] = tested on: cGAS, STING, and TBK1; details: doxorubicin 2 μM 6 hours; cGAMP 16 hours
Method: Cell Fractionation: THP1 cells were treated as indicated, then nuclear and cytoplasmic fractions were isolated using NE-PER™ Nuclear and Cytoplasmic Extraction Reagents (Thermo Scientific, Catalogue #78833) following the manufacturer's protocol. 20 g of cytoplasmic and nuclear proteins were used for immunoblotting.

[8] = tested on: Nematostella vectensis; assay: DDR in starlet sea anemones; type: in vivo; details: whole animals; cGAMP in digitonin solution 10 minutes; doxorubicin 2 μM; 16 hours
From the text: Starlet sea anemones: Wild type, laboratory maintained, Self-sustaining Nematostella vectensis culture containing of 3-6 months old male and female animals (Putnam et al., 2007) was a kind gift from Timothy J. Jegla (Penn State University Department of Biology). They were maintained in 6-well plates containing water with Instant Ocean® Aquarium Sea Salt (50 gm/l) and fed brine shrimp. […] Permeabilization solution was removed and the animals returned to maintenance sea salt water. Doxorubicin was added to the maintenance sea salt water to a final concentration of 2 μM. 16 hours post treatment. N. vectensis were collected and washed once with cold PBS before the addition of 200 μl RIPA buffer. Samples were homogenized by sonication and centrifuged at 4° C. to remove debris. Soluble lysates were quantified for protein analysis by western blot.

[9] = tested on: cGAMP; assay: 2′3′-cGAMP ELISA in THP1 cells; type: cell-based, human; details: WT THP1, 1 μM Doxorubicin, 1 hr
[10] = tested on: Crassostrea virginica; assay: DDR in oysters after adductor muscle injection; type: in vivo; details: hemocytes; cGAMP 25 μg/50 gm, doxorubicin 1 μg/50 gm oyster weight, 16 hours
Method: Oysters: Wild adult eastern oysters (Crassostrea virginica) of both male and female sexes ranging from 2 cm-7 cm in length (1 to 3 years in age) were collected from a natural oyster reef on Virgnia's Eastern Shore. Following collection, the diploid oysters were placed on ice and transported approximately 3 h to the University of Virginia main campus in Charlottesville, VA. There they were stored in an aerated aquarium containing water supplemented with Instant Ocean® Aquarium Sea Salt (50 gm/l). […] Treated oysters were kept at 4° C. in the dark for 16 hours after which they were shucked, had their hemolymph/tissues harvested for analysis by western blotting, and dead oyster and shell were disposed of.

[11] = tested on: γH2AX; assay: γH2AX immunofluorescence (human RPE, THP1 cells); type: cell-based
Method: Immunofluorescence Staining: 16,500 adherent cells/cm^2 were plated on a gelatin coated 8-chamber slide (VWR, Catalogue #62407-296) and treated as indicated. Media was removed and cells were washed with 1×PBS with Ca^2+/Mg^2+ and fixed with 4% PFA for 20 minutes. Fixed cells were permeabilized with PBS+0.1% Triton-X and washed 3 times with PBS+0.1% Tween20. After treatment as indicated, non-adherent THP1 cells were collected by centrifugation, washed in cold PBS and fixed in PFA. Post-fixation, they were washed with PBS, spotted on gelatin coated “PTFE” Printed Slides (Electron Microscopy Sciences, Cat #63424-06), and air-dried. For γH2AX staining, permeabilized cells were blocked in Serum-free DAKO Protein Block (Agilent, Catalogue #X0909) for 1 hr at room temperature. Cells were incubated in primary antibody (γH2AX, 1:500; anti-HA, 1:100; Table 1) in DAKO antibody diluent at 4° C. overnight on a rocker platform. U2OS-STING cells undergoing Rad51 staining were first fixed in methanol for 20 minutes in −20° C., blocked for 1 hr with donkey block (2% normal donkey serum, 1% BSA, 0.1% Triton X 100, 0.05% Tween20, 0.05% Sodium Azide in PBS), then finally incubated in an anti-Rad51 antibody overnight at 4° C. (Bio-academia Cat #70-001, 1:6000 in 5% milk in TBST). For RPA70 staining, cells were fixed in 4% PFA at room temperature for 20 minutes and blocked in Cell Signaling blocking buffer (1×PBS/5% normal donkey serum/0.3% Triton™ X-100) for 1 hr in room temperature then incubated in an RPA70 antibody (Cell Signaling Cat #2267, 1:50 in blocking buffer) overnight at 4° C. Primary antibody was washed 3 times and incubated with secondary antibodies (Invitrogen, Alexa 555, 488) for 1 hr at room temperature. Coverslips were mounted on the cells with ProLong™ Gold Antifade mounting media with DAPI (Thermofisher, Catalogue #P36935). All images were obtained by confocal microscopy (Nikon, C2).

[12] = tested on: cGAS; assay: HA-cGAS co-immunoprecipitation in HA-cGAS-reconstituted cGAS−/− MEFs; type: cell-based, mouse; details: doxorubicin 2 μM 6 hours
Method: Immunoprecipitation: Cells were treated as indicated and were lysed in RIPA buffer. Co-immunoprecipitation experiments were conducted using Dynabeads™ Protein G Immunoprecipitation Kits (Thermo Fisher, Catalogue #10007D) as per the manufacturer's protocol. 50 μl of Dynabead slurry was added to a microfuge tube and placed on a magnet to separate the solution. Beads were washed in 200 μl PBS with 0.1% Tween20 (3 times) before 5 μg antibody along with […] protein lysate diluted in PBS-tween20 to a final volume of 500 μl was added to the beads and incubated overnight at 4° C. with rotation. Beads were collected by magnetic separation and washed 3 times with wash buffer (10 mM Tris; adjust to pH 7.4, 1 mM EDTA; pH 8.0, 150 mM NaCl). Finally, bead-bound proteins were eluted by boiling in 1× Laemmli buffer and samples analyzed by western blotting.

[13] = tested on: PARylation; assay: PolyADP-ribosylation (PARylation) immunoblot; type: cell-based, human; details: THP1, 2 mM NAM 18 hours, 250 μM H2O2 10 minutes
From the text: Cells were collected by centrifugation, washed once with ice-cold PBS, lysed in RIPA buffer and analyzed by western blot to detect PARylation using pADPr Antibody (Santa Cruz sc-56198).

[14] = tested on: NAD^+; assay: NAD+ quantification; type: cell-based, human; details: THP1, 2 mM, 4 mM and 8 mM NAM, 18 hours
[15] = tested on: PARP; assay: PARP activity assay; type: cell-based, human
Method: Post cGAMP treatment, cells were collected by centrifugation and washed with cold PBS once and resuspended in Cell Extraction Buffer. PARP activity was measured using the Chemiluminescent Assay Kit (R&D, Catalog Number: 4685-096-K) following manufacturer's protocol.

[16] = tested on: cGAS; details: Liu et al., 2018; cited from earlier work
[17] = tested on: U2OS-STING cells; assay: RAD51 and RPA70 foci in EdU+ U2OS-STING cells; type: cell-based, human; details: EdU-positive S-phase cells, Camptothecin 5 μM 16 hours
Method: Immunofluorescence Staining: 16,500 adherent cells/cm^2 were plated on a gelatin coated 8-chamber slide (VWR, Catalogue #62407-296) and treated as indicated. Media was removed and cells were washed with 1×PBS with Ca^2+/Mg^2+ and fixed with 4% PFA for 20 minutes. Fixed cells were permeabilized with PBS+0.1% Triton-X and washed 3 times with PBS+0.1% Tween20. After treatment as indicated, non-adherent THP1 cells were collected by centrifugation, washed in cold PBS and fixed in PFA. Post-fixation, they were washed with PBS, spotted on gelatin coated “PTFE” Printed Slides (Electron Microscopy Sciences, Cat #63424-06), and air-dried. For γH2AX staining, permeabilized cells were blocked in Serum-free DAKO Protein Block (Agilent, Catalogue #X0909) for 1 hr at room temperature. Cells were incubated in primary antibody (γH2AX, 1:500; anti-HA, 1:100; Table 1) in DAKO antibody diluent at 4° C. overnight on a rocker platform. […]
EdU incorporated cells were detected by confocal microscopy after Click-iT® EdU labeling following the manufacturer's protocol (Click-iT™ EdU Alexa Fluor™ 594 Imaging Kit, Thermo Fisher Cat #C10339).

Compound: O=c1cc(-c2cccc3c2Sc2ccccc2S3)oc(N2CCOCC2)c1 [KU55933]
- effect of ATM inhibitor on cGAMP-induced G1 arrest ([1]; WT THP1, 25 μM KU-55933, cGAMP 24 hours): suppressed the ability of cGAMP to induce γH2AX and pCHK2 (FIG. 9A) and to induce G1 arrest
- HDR under ATM inhibition alone ([2]; 25 μM KU-55933): impeded HDR in its own right
- effect on cGAMP-induced γH2AX and pCHK2 [3]: suppressed the ability of cGAMP to induce γH2AX and pCHK2
- ATM phosphorylation on Ser1981 [4]: suppressed

Compound: O=C(NCCCNc1nc(Nc2cccc(CN3CCOCC3)c2)ncc1C1CC1)C1CCC1 [MRT67307]
- ATM phosphorylation on Ser1981 [4]: suppressed
- effect on cGAMP-induced phosphorylation of ATM (S1981), CHK2, and H2AX ([5]; THP1 pretreated with 2 μM TBK1 inhibitor, cGAMP 16 hours): suppressed cGAMP-induced phosphorylation of ATM (S1981), CHK2, and H2AX

Compound: CC[C@@]1(O)C(=O)OCc2c1cc1n(c2=O)Cc2cc3ccccc3nc2-1 [camptothecin]
- DDR induction in cells lacking STING or TBK1 [5]: abrogated
- phosphorylation of H2AX, ATM, and CHK2 ([5]; cGAS−/− THP1, camptothecin 2 μM 4 hours): all suppressed
- DDR signaling (γH2AX) [6]: suppressed both in cGAS^−/− and cGAS^(GS198AA) primary MEFs

Compound: COc1cccc2c1C(=O)c1c(O)c3c(c(O)c1C2=O)C[C@@](O)(C(=O)CO)C[C@@H]3O[C@H]1C[C@H](N)[C@H](O)[C@H](C)O1 [doxorubicin]
- nuclear enrichment of TBK1, pTBK1, STING [7]: promoted nuclear enrichment of TBK1 but not STING
- nuclear enrichment of cGAS [7]: nuclear enrichment of cGAS
- TBK1 phosphorylation (pTBK1) [8]: TBK1 phosphorylation
- γH2AX [8]: elevated levels of γH2AX
- cGAMP production [9]: reacted by producing cGAMP
- TBK1 phosphorylation (pTBK1) [10]: TBK1 phosphorylation
- γH2AX [10]: elevated levels of γH2AX
- γH2AX foci in cGAS- and STING-deficient cells ([11]; doxorubicin-treated THP1 cells): significant reduction in the intensity of γH2AX foci
- γH2AX staining pattern ([11]; human RPE cells, doxorubicin 2 hours, cGAMP or HT-DNA 6 hours): catalyzed the formation of γH2AX foci characteristic of DSB induction
- DDR induction in cells lacking STING or TBK1 [5]: abrogated
- cGAS association with ATM [12]: detected no such interactions
- cGAS complex with γH2AX [12]: nuclear translocated cGAS was found in a complex with γH2AX
- DDR signaling (γH2AX) [6]: suppressed both in cGAS^−/− and cGAS^(GS198AA) primary MEFs

Compound: NC(=O)c1cccnc1 [nicotinamide]
- effect on cGAMP-driven inhibition of protein PARylation [13]: abrogated cGAMP-driven inhibition of protein PARylation and HDR
- cellular NAD^+ levels with nicotinamide supplementation [14]: Boosting cellular NAD^+ levels
- effect on cGAMP-driven inhibition of HDR ([2]; 2 mM and 4 mM NAM): abrogated cGAMP-driven inhibition of protein PARylation and HDR
- effect on cGAMP-driven inhibition of cellular PARP enzymatic activity ([15]; THP1, 2 mM, 4 mM and 8 mM NAM, 18 hours): overcame cGAMP-driven inhibition of cellular PARP enzymatic activity

Compound: O=C(c1cc(Cc2n[nH]c(=O)c3ccccc23)ccc1F)N1CCN(C(=O)C2CC2)CC1 [olaparib]
- cGAS-PARP1 interactions and DNA damage-induced nuclear cGAS translocation [16]: blocked

Compound: CNCc1ccc(-c2[nH]c3cc(F)cc4c3c2CCNC4=O)cc1 [rucaparib]
- abundance of S/G2-phase cells ([1]; THP1 10 μM Rucaparib (propidium iodide), U2OS-STING (EdU)): causes increased abundance of S/G2-phase cells
- HDR ([2]; 1 μM PARP inhibitor (Rucaparib)): significantly reduced HDR in TrLR reporter cells
- DNA damage-induced RAD51 and RPA foci formation [17]: suppressed DNA damage-induced RAD51 and RPA foci formation in EdU-positive S-phase cells
- PARP enzymatic activity in cell lysates ([15]; THP1, cGAMP 6 hours, Rucaparib 10 μM, 6 hr): lower PARP enzymatic activity

Compound: Pam3CSK4
- DDR activation (γH2AX) ([6]; WT primary MEF, Pam3CSK4 500 ng/ml 6 hours, HT-DNA 4 ug/6-well 6 hours, 5′ppp-dsRNA 0.5 μg/6 well 6 hours, cGAMP 16 hours): failed to stimulate the DDR
